Values joined by “and” are separate entries in the source; they are usually repeats but may differ in a detail not shown here. Equal values may be shown once.
Assays:
[1] = tested on: Eastern subterranean termite, Reticulitermes flavipes; test: Termite direct application test (Example 20); assay type: in vivo; settings: 1 uL onto the back or thorax
Procedure: In this test, in addition to water as a negative control, a positive control, in the form of the commercially available pesticide Raid® in also included. The method in this test simply involved pippetting 1 uL of the formulation onto the back or thorax of the Eastern subterranean termite, Reticulitermes flavipes, and recording the time to death. This test was performed on Mar. 13, 2007. The formulations used in the test were: (a) Raid®, a commercially available pesticide, (b) Undecanone, (c) BioUD™10, (d) BioUD™5, (e) Soy Methyl Ester (SME), and (f) water as a negative control.

[2] = tested on: adult German cockroaches, Blattella germanica; test: Direct application toxicity test, comparison of insecticides including BioUD 10 (Table 23); assay type: in vivo; settings: 10 μL; adult female (F); individual cockroaches
Procedure: Ten μL of BioUD™10, pure Undecanone, or Raid® were separately applied to the backs (thorax and wings) of adult German cockroaches, Blattella germanica. Insects were separately placed into FLUON®-treated diet cups (Vol.=30 mL, lower diam.=3 cm, height=4 cm) to prevent escape of treated specimens.

## CCCCCCCCCC(C)=O [Undecanone, 2-Undecanone]
[1]
  Time-to-death (sec), mean: 171.5 s
[1]; individual termite
  Time-to-death: 157 s and 389 s and 68 s and 174 s and 146 s
[2]
  Time-to-death: 47 s and 46 s and 1200 s and 57 s
